This is an account of results in PubChem BioAssay (NCI).

Assay in all cases: growth of human tumour cells (NCI), 48 h
In experiment [1] the test system is K-562 leukemia.
Experiment [2] has as its system KM12 colon.
In experiment [3] the test system is BT-549 breast.
The test system of experiment [4] is ACHN renal.
For experiment [5], the system named is MDA-N.
Experiment [6] relates to A549 NSCLC.
Experiment [7] concerns NCI-H522 lung.
Experiment [8] concerns SNB-19 CNS.
In experiment [9] the test system is HCC-2998 colon.

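Dose response: 5 concentrations. Exposure: 48 h. Format: 96-well plates. Endpoint: linear interpolation; highest concentration if not reached. TGI: total growth inhibition.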 A value given as a limit tells only on which side of the number the result lay.

For `O=[N+]([O-])/C=C/c1cn(CCCCCn2cc(/C=C/[N+](=O)[O-])c3ccccc32)c2ccccc12`, the TGI in experiment [1] was found to be 3.7 µM; in [2], 3.94 µM; in [3] it was 6.72 µM; in experiment [4] it was 13.9 µM; in experiment [5], 6.67 µM; in [6] it was 11.7 µM. Further, the TGI in [7] was determined as 50.4 µM; in [8], 24.2 µM; in experiment [9], 2.8 µM.

Consider `O=C1/C(=C\c2cccc(Oc3ccccc3)c2)SC(c2ccccc2)N1c1cccc([N+](=O)[O-])c1` (centres undefined), for which the TGI in experiment [1], in experiment [2], in experiment [3], in experiment [4], in experiment [5] and in experiment [6] was more than 100 µM throughout. The TGI in experiment [7], in experiment [8] and in experiment [9] was more than 100 µM each time.

As for `COC(=O)C(C(=O)C(=O)NC1Nc2ccc(C)cc2S1)c1nc2ccc(Cl)cc2[nH]c1=O` (centres undefined), the TGI in experiment [1], in [2], in experiment [3], in [4], in [5] and in experiment [6] was more than 100 µM in each case. The TGI in experiment [7], in experiment [8] and in experiment [9] was more than 100 µM each time.

On to `CNc1ccc(Cl)cc1S(=O)(=O)c1ccccc1[N+](=O)[O-]`, for which the TGI in experiment [1], in experiment [3], in [4], in experiment [5], in [6] and in experiment [7] was more than 100 µM each time. Besides, the TGI in experiment [8] and in [9] was more than 100 µM throughout.

Take `CC(C)(C)OC(=O)N1CCc2c(n(C/C=C/c3ccccc3)[nH]c2=O)C1`: the TGI in [1], in [2], in [3], in experiment [4], in experiment [5] and in experiment [6] was more than 100 µM in each case. Besides, the TGI in [7], in experiment [8] and in [9] was more than 100 µM each time.

Turning to `NC(=O)C1=CC2C3C=CC2(O)C(=O)OC3O1` (centres undefined), the TGI in experiment [1] was more than 100 µM; in experiment [2], 11.4 µM; in experiment [3] it was 17.3 µM; in experiment [4], 15.7 µM; in [5], 6.97 µM; in experiment [6], more than 100 µM. Further, the TGI in experiment [7] came out at 4.31 µM; in experiment [8], 60.9 µM; in [9], 26.7 µM.

Consider `CCCCCCOP(=O)(OCCCCCC)OC(C(=O)OC)C(F)(F)F` (centres undefined), for which the TGI in experiment [1], in experiment [2], in experiment [3], in experiment [4], in experiment [5] and in [6] was more than 100 µM in each case. The TGI in [7], in experiment [8] and in experiment [9] was more than 100 µM throughout.

Take `CCCCCCCCCCCCCCCCOCC(Cl)COP(=O)(O)OP(=O)(O)OCC1OC(n2cnc3c(N)ncnc32)C(O)C1O` (centres undefined): the TGI in experiment [1], in experiment [2], in [3], in experiment [4], in [5] and in experiment [6] was more than 100 µM each time. Moreover, the TGI in [7], in experiment [8] and in experiment [9] was more than 100 µM throughout.

Take `CC(C)C1CC(CO)(CNc2cc(Cl)nc(N)n2)C1` (centres undefined): the TGI in experiment [1], in experiment [2], in experiment [3], in [4], in experiment [5] and in [6] was more than 100 µM throughout. The TGI in experiment [7], in experiment [8] and in experiment [9] was more than 100 µM in each case.

Take `C=C1CC(Cn2cc(Br)c(=O)[nH]c2=O)(c2ccc(-c3ccccc3)cc2)OC1=O` (centres undefined): the TGI is more than 100 µM in experiment [1]; 3.68 µM in experiment [2]; 3.31 µM in experiment [3]; 3.24 µM in experiment [4]; 2.35 µM in experiment [5]; 21.6 µM in experiment [6]. The TGI in experiment [7] is 2.55 µM; in experiment [8] it was 26.8 µM; in experiment [9] it was 3.21 µM.

Turning to `CC12CC(c3ccccc3O1)C(C(=O)Nc1cccc(F)c1)C(=O)N2` (centres undefined), the TGI in experiment [1] was more than 100 µM; in experiment [2], more than 100 µM; in experiment [3] it was 66.8 µM; in [4], more than 100 µM; in [5], more than 100 µM; in experiment [6], more than 100 µM. For the same compound, the TGI in experiment [7], in experiment [8] and in experiment [9] was more than 100 µM each time.

For the compound `O=c1oc2ccc(Cl)cc2cc1-c1cn2ccsc2n1`, the TGI in experiment [1] is more than 100 µM; in experiment [2] it was more than 100 µM; in [3], 70.3 µM; in [4] it was more than 100 µM; in experiment [5], more than 100 µM; in [6] it was more than 100 µM. Also, the TGI in experiment [7] is 47.9 µM; in experiment [8], more than 100 µM; in [9], more than 100 µM.

For `CC/C(Cl)=N\OC(=O)Nc1ccc(F)cc1F`, the TGI in experiment [1] was 2.34 µM; in experiment [2], 41.3 µM; in [3], 6.93 µM; in experiment [4], 3.78 µM; in experiment [5], 12.6 µM; in experiment [6], 39.8 µM. Besides, the TGI in experiment [7] is 3.65 µM; in [8], more than 56.6 µM; in [9], 36.7 µM.

On to `Cc1cn([C@H]2[C@@H](CO)C[C@H]2O)c(=O)[nH]c1=O`, for which the TGI in [1], in [2], in [3], in experiment [4], in experiment [5] and in experiment [6] was more than 100 µM throughout. Moreover, the TGI in experiment [7] and in experiment [9] was more than 100 µM throughout.
